Experimental findings from patent publication US9540343B2 (Gilead Sciences, Inc., priority 2011, dated 2017) are described below.

Usually CC50 stands for the concentration that lowers cell viability or growth by half. Low readings indicate greater toxicity to the cells, high ones lower toxicity to the cells. As usually defined, the inhibition is how much of the control response was suppressed.

One data set is described as follows: in vitro. The note with it: human, uninfected MT-4 cells, CC50 (nM), same protocol as Test A, CellTiter-Glo. The procedure:
For the antiviral assay, 40 μL of 1× test concentration of 3-fold serially diluted compound in culture medium with 10% FBS was added to each well of a 384-well plate (10 concentrations) in quadruplicate. MT-4 cells were next mixed with HIV-IIIb at an m.o.i of 0.003 for 1 hour, after which time 35 μL of virus/cell mixture (2000 cells) was immediately added to each well containing 40 μL of diluted compound. The plates were then incubated at 37° C. for 5 days. After 5 days of incubation, 25 μl of 2× concentrated CellTiter-Glo™ Reagent (catalog #G7571, Promega Biosciences, Inc., Madison, Wis.) was added to each well containing MT-4 cells. Cell lysis was carried out by incubating at room temperature for 10 min and then chemiluminescence was read.
Test B: Cytotoxicity Assay
Compound cytotoxicity and the corresponding CC50 values was determined using the same protocol as described in the antiviral assay (Test A) except that uninfected cells were used.
On the technique in general: ATP-based viability assays read luminescence as a measure of living cells.

A further data set has as its system HIV-IIIb. Briefly: Test A: Antiviral assay in MT4 cells. As to conditions: Human immunodeficiency virus 1, IIIB, MT4, 120 h, read-out: % inhibition at 2 μM, percent inhibition of virus-induced cell killing, from dose response curve at 2 uM drug; MT-4 cells infected with HIV-IIIb, 5 days, CellTiter-Glo. The format is cell-based, HIV-1.

`NC(=O)c1cc(-c2cccnc2[C@H](Cc2cc(F)cc(F)c2)NC(=O)CN2CC(=O)Nc3ccccc32)ccc1F` [Example 269, (S)-5-(2-(2-(3,5-difluorophenyl)-1-(2-(3-oxo-3,4-dihydroquinoxalin-1(2H)-yl)acetamido)ethyl)pyridin-3-yl)-2-fluorobenzamide] came in with a CC50 at 5 days in the data set “in vitro” of over 53200 nM. The inhibition at 2 µM in the data set on HIV-IIIb was determined as 8%.
Taken in the same sequence, the figures for `O=C(Cc1c[nH]c2ccc(F)cc12)N[C@@H](Cc1cc(F)cc(F)c1)c1ncccc1-c1cccc(OCc2ccccc2)c1` [Example 92, (S)—N-(1-(3-(3-(benzyloxy)phenyl)pyridin-2-yl)-2-(3,5-difluorophenyl)ethyl)-2-(5-fluoro-1H-indol-3-yl)acetamide] were 10300 nM and 0%.
Taken in the same sequence, the figures for `C=Cc1c(C(F)F)nn(CC(=O)N[C@@H](Cc2cc(F)cc(F)c2)c2ncccc2-c2ccc(F)c(C(N)=O)c2)c1C(F)F` [Example 553, (S)-5-(2-(1-(2-(3,5-bis(difluoromethyl)-4-vinyl-1H-pyrazol-1-yl)acetamido)-2-(3,5-difluorophenyl)ethyl)pyridin-3-yl)-2-fluorobenzamide] were 23800 nM and 11%.
Taken in the same sequence, the figures for `Cc1[nH]c2ccc(F)cc2c1CC(=O)N[C@@H](Cc1cc(F)cc(F)c1)c1ncccc1-c1ccc(Cl)cc1` [Example 597, (S)—N-(1-(3-(4-chlorophenyl)pyridin-2-yl)-2-(3,5-difluorophenyl)ethyl)-2-(5-fluoro-2-methyl-1H-indol-3-yl)acetamide] were 8650 nM and 89%.
On to `CNC(=O)c1nc2c(C)cccc2n1CC(=O)N[C@@H](Cc1cc(F)cc(F)c1)c1ncccc1-c1ccc(F)c(C(N)=O)c1` [Example 523, (S)-1-(2-(1-(3-(3-carbamoyl-4-fluorophenyl)pyridin-2-yl)-2-(3,5-difluorophenyl)ethylamino)-2-oxoethyl)-N,4-dimethyl-1H-benzo[d]imidazole-2-carboxamide], for which the CC50 at 5 days in the data set “in vitro” turned out to be 48800 nM. For the same compound, the inhibition at 2 µM with HIV-IIIb was 24%.
Taken in the same sequence, the figures for `O=C(Cc1c[nH]c2ccc(F)cc12)N[C@@H](Cc1cc(F)cc(F)c1)c1ncccc1-c1cccc(OC(F)(F)F)c1` [Example 67, (S)—N-(2-(3,5-difluorophenyl)-1-(3-(3-(trifluoromethoxy)phenyl)pyridin-2-yl)ethyl)-2-(5-fluoro-1H-indol-3-yl)acetamide] were 6460 nM and 0%.
Taken in the same sequence, the figures for `Cc1ccc(C)c2c1NC(=O)C2CC(=O)N[C@@H](Cc1cc(F)cc(F)c1)c1ncccc1-c1ccc(F)c(C(N)=O)c1` (stereo partly drawn) [Example 259, 5-(2-((1S)-2-(3,5-difluorophenyl)-1-(2-(4,7-dimethyl-2-oxoindolin-3-yl)acetamido)ethyl)pyridin-3-yl)-2-fluorobenzamide] were 47600 nM and 2%.
Taken in the same sequence, the figures for `Cc1cc2ncn(CC(=O)N[C@@H](Cc3cc(F)cc(F)c3)c3ncccc3-c3ccc(F)c(C(N)=O)c3)c2cc1C` [Example 564, (S)-5-(2-(2-(3,5-difluorophenyl)-1-(2-(5,6-dimethyl-1H-benzo[d]imidazol-1-yl)acetamido)ethyl)pyridin-3-yl)-2-fluorobenzamide] were 10300 nM and 100%.
In “in vitro”, `NC(=O)c1cc(-c2ccc[n+]([O-])c2[C@H](Cc2cc(F)cc(F)c2)NC(=O)Cn2nc(C(F)(F)F)c3c2CCS(=O)(=O)C3)ccc1F` [Example 197, (S)-3-(3-carbamoyl-4-fluorophenyl)-2-(2-(3,5-difluorophenyl)-1-(2-(5,5-dioxido-3-(trifluoromethyl)-6,7-dihydrothiopyrano[4,3-c]pyrazol-1(4H)-yl)acetamido)ethyl)pyridine-1-oxide] displayed a CC50 at 5 days of over 53200 nM. In the data set with HIV-IIIb, the inhibition at 2 µM stood at 0%.
Taken in the same sequence, the figures for `NC(=O)c1cc(-c2cccnc2[C@H](Cc2cc(F)cc(F)c2)NC(=O)Cn2cc(C(F)(F)F)nc2CO)ccc1F` [Example 437, (S)-5-(2-(2-(3,5-difluorophenyl)-1-(2-(2-(hydroxymethyl)-4-(trifluoromethyl)-1H-imidazol-1-yl)acetamido)ethyl)pyridin-3-yl)-2-fluorobenzamide] were over 53200 nM and 3%.
Taken in the same sequence, the figures for `NC(=O)c1cc(-c2cccnc2[C@H](Cc2cc(F)cc(F)c2)NC(=O)Cn2nc3c(c2C(F)F)C2CC2C3=O)ccc1F` (stereo partly drawn) [Example 220B, 5-(2-((1S)-1-(2-(3-(difluoromethyl)-5-oxo-3b,4,4a,5-tetrahydro-2H-cyclopropa[3,4]cyclopenta[1,2-c]pyrazol-2-yl)acetamido)-2-(3,5-difluorophenyl)ethyl)pyridin-3-yl)-2-fluorobenzamide] were 39200 nM and 70%.
Taken in the same sequence, the figures for `COCc1cn(CC(=O)N[C@@H](Cc2cc(F)cc(F)c2)c2ncccc2-c2ccc(F)c(C(N)=O)c2)nc1C(F)(F)F` [Example 361, (S)-5-(2-(2-(3,5-difluorophenyl)-1-(2-(4-(methoxymethyl)-3-(trifluoromethyl)-1H-pyrazol-1-yl)acetamido)ethyl)pyridin-3-yl)-2-fluorobenzamide] were over 53200 nM and 8%.
In the data set “in vitro”, `Cc1c(C2CC2)c(C(F)(F)F)nn1CC(=O)N[C@@H](Cc1cc(F)cc(F)c1)c1ncccc1-c1ccc(F)c(C(N)=O)c1` [Example 291, (S)-5-(2-(1-(2-(4-cyclopropyl-5-methyl-3-(trifluoromethyl)-1H-pyrazol-1-yl)acetamido)-2-(3,5-difluorophenyl)ethyl)pyridin-3-yl)-2-fluorobenzamide] had a CC50 at 5 days of 16500 nM. The inhibition at 2 µM in the data set on HIV-IIIb is 86%.
Taken in the same sequence, the figures for `Cc1ccccc1-c1cccnc1[C@@H](Cc1ccccc1)NC(=O)Cc1c[nH]c2ccc(O)cc12` [Example 15, (R)-2-(5-hydroxy-1H-indol-3-yl)-N-(2-phenyl-1-(3-o-tolylpyridin-2-yl)ethyl)acetamide] were 28200 nM and 0%.
`NC(=O)c1cc(-c2cccnc2[C@H](Cc2cc(F)cc(F)c2)NC(=O)Cn2nc(C(N)=O)c3c2CC2CC32)ccc1F` (stereo partly drawn) [Example 209, 1-(2-(((S)-1-(3-(3-carbamoyl-4-fluorophenyl)pyridin-2-yl)-2-(3,5-difluorophenyl)ethyl)amino)-2-oxoethyl)-3b,4,4a,5-tetrahydro-1H-cyclopropa[3,4]cyclopenta[1,2-c]pyrazole-3-carboxamide] registered a CC50 at 5 days in the data set “in vitro” of over 53200 nM. For the same compound, in the data set with HIV-IIIb, the inhibition at 2 µM stood at 51%.
Taken in the same sequence, the figures for `NC(=O)c1cc(-c2cccnc2[C@H](Cc2cc(F)cc(F)c2)NC(=O)Cn2nc(C(F)(F)F)c3c2C(=O)CCC3(F)F)ccc1F` [Example 414] were 23400 nM and 39%.
With `CC(C)(C)OC(=O)N1CC(=O)C[C@H]1C(=O)N[C@@H](Cc1cc(F)cc(F)c1)c1ncccc1-c1ccc(F)c(C(N)=O)c1` [Example 137, (S)-tert-butyl 2-((S)-1-(3-(3-carbamoyl-4-fluorophenyl)pyridin-2-yl)-2-(3,5-difluorophenyl)ethylcarbamoyl)-4-oxopyrrolidine-1-carboxylate], half-maximal cytotoxicity in “in vitro” (CC50 at 5 days) was put at 21700 nM. In addition, the inhibition at 2 µM with HIV-IIIb worked out at 1%.
